Laboratory results reported in ChEMBL document CHEMBL3856195, “2,3,4-Trihydroxybenzyl-hydrazide analogues as novel potent coxsackievirus B3 3C protease inhibitors” (Eur J Med Chem, 2016).
The source made the active and inactive calls. No cut-off for these calls is given here.

Columns and labels:
[1] = molecular target: T1, Genome polyprotein (Coxsackievirus B3 (strain Nancy), UniProt P03313); test: Inhibition of recombinant Coxsackievirus B3 3C protease expressed in Escherichia coli BL21 (DE3) preincubated for 5 mins followed by addition of NMA-EALFQGPPVK-DNP-rrr-NH2 as substrate measured up to 2 hrs by FRET-based enzyme assay
[2] = molecular target: T1, Genome polyprotein; test: Inhibition of recombinant Coxsackievirus B3 3C protease expressed in Escherichia coli BL21 (DE3) preincubated for 5 mins followed by addition of NMA-EALFQGPPVK-DNP-rrr-NH2 as substrate measured every 10 mins for 2 hrs by FRET-based enzyme assay
[3] = Cytotoxicity against human HeLa cells assessed as reduction in cell viability at 10 and 100 uM by CCK8 assay; format: toxicity, cell-based
[4] = molecular target: Genome polyprotein (Coxsackievirus B3 (strain Nancy)) (UniProt P03313); test: Non-competitive inhibition of recombinant Coxsackievirus B3 3C protease expressed in Escherichia coli BL21 (DE3) preincubated with protein followed by addition of NMA-EALFQGPPVK-DNP-rrr-NH2 as substrate measured every 5 mins for 2 hrs by Michaelis-Menten plot analysis
[5] = molecular target: Genome polyprotein (Coxsackievirus B3 (strain Nancy)) (UniProt P03313); test: Mixed-type inhibition of recombinant Coxsackievirus B3 3C protease expressed in Escherichia coli BL21 (DE3) preincubated with protein followed by addition of NMA-EALFQGPPVK-DNP-rrr-NH2 as substrate measured every 5 mins for 2 hrs by Lineweaver-Burk plot analysis
[6] = molecular target: T1, Genome polyprotein; test: Competitive inhibition of recombinant Coxsackievirus B3 3C protease expressed in Escherichia coli BL21 (DE3) preincubated with protein followed by addition of NMA-EALFQGPPVK-DNP-rrr-NH2 as substrate measured every 5 mins for 2 hrs by Dixon plot analysis
[7] = molecular target: T1, Genome polyprotein; test: Inhibition of recombinant Coxsackievirus B3 C-terminal 6His-tagged 3C protease expressed in Escherichia coli BL21 preincubated for 20 mins followed by addition of fluorogenic peptide as substrate by Cheng-Prusoff equation analysis
[8] = test system: Coxsackievirus B3; test: Antiviral activity against Coxsackievirus B3 infected in human HeLa cells at 10 uM measured after 20 to 24 hrs by CCK8 assay; format: functional; details: Enterovirus B
[9] = Apparent permeability in MDCK cells at 50 uM and measured after 30 mins by LC-MS/MS analysis; format: ADME, cell-based, Canis lupus familiaris; details: dog

T1 sequence (P03313 1541-1723 limits assumed): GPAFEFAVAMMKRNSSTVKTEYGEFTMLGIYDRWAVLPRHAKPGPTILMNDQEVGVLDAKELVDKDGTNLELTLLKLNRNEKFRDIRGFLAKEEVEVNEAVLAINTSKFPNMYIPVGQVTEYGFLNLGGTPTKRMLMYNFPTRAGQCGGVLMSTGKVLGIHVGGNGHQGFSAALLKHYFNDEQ
Chain of Genome polyprotein (Coxsackievirus B3 (strain Nancy)) (P03313 whole entry): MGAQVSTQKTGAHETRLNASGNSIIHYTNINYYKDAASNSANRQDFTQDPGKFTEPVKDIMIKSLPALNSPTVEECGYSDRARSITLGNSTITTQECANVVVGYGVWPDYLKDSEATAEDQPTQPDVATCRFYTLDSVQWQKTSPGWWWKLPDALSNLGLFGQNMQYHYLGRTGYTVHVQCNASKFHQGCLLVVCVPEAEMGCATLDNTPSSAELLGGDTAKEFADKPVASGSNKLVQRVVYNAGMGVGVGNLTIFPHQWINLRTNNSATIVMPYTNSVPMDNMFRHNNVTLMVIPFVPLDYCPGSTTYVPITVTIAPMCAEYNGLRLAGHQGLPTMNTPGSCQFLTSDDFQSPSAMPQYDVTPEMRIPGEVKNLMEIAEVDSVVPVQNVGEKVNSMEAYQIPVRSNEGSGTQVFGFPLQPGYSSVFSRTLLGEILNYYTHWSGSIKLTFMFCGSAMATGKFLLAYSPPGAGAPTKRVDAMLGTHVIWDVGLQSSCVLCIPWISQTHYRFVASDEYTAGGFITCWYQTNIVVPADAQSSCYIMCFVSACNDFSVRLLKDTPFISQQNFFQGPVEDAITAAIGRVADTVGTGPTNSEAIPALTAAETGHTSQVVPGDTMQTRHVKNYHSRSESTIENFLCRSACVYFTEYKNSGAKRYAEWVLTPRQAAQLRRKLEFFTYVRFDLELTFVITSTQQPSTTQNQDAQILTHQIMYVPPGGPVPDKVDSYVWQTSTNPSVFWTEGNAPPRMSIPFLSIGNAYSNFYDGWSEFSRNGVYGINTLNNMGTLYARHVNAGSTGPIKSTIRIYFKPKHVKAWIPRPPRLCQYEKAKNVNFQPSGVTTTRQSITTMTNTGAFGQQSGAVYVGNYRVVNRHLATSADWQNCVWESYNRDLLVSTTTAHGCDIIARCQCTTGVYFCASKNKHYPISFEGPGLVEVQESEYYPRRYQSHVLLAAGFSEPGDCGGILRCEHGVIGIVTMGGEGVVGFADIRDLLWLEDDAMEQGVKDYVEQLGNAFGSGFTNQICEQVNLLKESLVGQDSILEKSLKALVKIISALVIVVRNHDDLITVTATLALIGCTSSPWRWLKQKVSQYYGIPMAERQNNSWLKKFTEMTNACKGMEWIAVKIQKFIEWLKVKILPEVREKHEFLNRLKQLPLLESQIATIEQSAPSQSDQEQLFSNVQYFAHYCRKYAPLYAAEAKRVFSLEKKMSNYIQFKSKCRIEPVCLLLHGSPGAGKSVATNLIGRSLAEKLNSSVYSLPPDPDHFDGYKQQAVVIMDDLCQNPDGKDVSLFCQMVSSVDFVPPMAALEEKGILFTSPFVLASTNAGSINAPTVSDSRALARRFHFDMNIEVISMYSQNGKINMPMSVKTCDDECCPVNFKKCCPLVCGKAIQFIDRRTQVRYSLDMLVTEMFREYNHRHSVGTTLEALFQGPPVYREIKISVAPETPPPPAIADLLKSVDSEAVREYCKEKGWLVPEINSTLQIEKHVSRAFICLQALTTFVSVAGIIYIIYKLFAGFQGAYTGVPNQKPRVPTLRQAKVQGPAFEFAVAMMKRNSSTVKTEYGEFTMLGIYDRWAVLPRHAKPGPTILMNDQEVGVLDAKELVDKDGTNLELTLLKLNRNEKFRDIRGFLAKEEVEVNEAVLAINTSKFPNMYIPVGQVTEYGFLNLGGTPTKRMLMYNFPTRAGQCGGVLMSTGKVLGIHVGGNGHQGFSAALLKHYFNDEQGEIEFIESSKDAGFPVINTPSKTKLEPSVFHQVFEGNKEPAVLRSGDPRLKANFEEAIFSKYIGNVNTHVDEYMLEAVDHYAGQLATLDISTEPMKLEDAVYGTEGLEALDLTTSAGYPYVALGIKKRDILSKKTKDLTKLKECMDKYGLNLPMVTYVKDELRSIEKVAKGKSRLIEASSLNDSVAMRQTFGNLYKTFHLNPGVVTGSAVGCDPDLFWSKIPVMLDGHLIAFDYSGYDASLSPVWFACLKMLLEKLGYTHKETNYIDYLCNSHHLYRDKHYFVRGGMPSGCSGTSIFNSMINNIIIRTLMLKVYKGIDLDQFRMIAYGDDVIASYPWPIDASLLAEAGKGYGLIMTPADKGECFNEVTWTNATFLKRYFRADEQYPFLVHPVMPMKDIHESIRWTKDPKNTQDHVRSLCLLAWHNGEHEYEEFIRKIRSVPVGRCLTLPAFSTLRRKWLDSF

Row | SMILES | IC50 [1] [nM] | other results
1 | CC(C)(C)OC(=O)NC(Cc1ccc(F)cc1)C(=O)N/N=C/c1ccc(O)c(O)c1O (stereo not drawn) | 890 | –
2 | O=C(CCCCc1ccccc1)N/N=C/c1ccc(O)c(O)c1O | 440 | –
3 | NC(CO)C(=O)NNCc1ccc(O)c(O)c1O (stereo not drawn) [BENSERAZIDE] | – | IC50 [2]: 2400 nM
4 | CS(=O)(=O)c1ccc(/C=N/NC(=O)c2ccccc2)cc1 | > 50000 | –
5 | O=C(N/N=C/c1ccc(O)c(O)c1O)c1ccc(Cl)cc1 | 590 | –
6 | O=C(CCCc1ccc(F)cc1)NNCc1ccc(O)c(O)c1O | 400 | –
7 | O=C(CCCCc1ccc(O)cc1)NNCc1ccc(O)c(O)c1O | 70 | Activity [3]: Non-Toxic; inhibition [4]: Dose-dependent effect; inhibition [5]: Active; Ki [6]: 324 nM
8 | O=C(Cc1ccc(O)cc1)NNCc1ccc(O)c(O)c1O | 110 | –
9 | O=C(Cc1ccc(F)cc1)NNCc1ccc(O)c(O)c1O | 340 | –
10 | O=C(N/N=C/c1ccc(O)c(O)c1O)c1ccccc1 | 970 | –
11 | O=C(NNCc1ccc(O)c(O)c1O)c1ccccc1 | 650 | –
12 | CC(=O)/C=C/[C@H](C[C@@H]1CNCC1=O)NC(=O)[C@H](CC(C)C)NC(=O)[C@H](CNC(=O)C(C)(C)C)NC(=O)OCc1ccccc1 | – | Ki [7]: 800 nM
13 | O=C(Cc1ccccc1)NNCc1ccc(O)c(O)c1O | 410 | –
14 | CCCCC(=O)Oc1c(O)ccc(/C=N/NC(=O)c2ccc(O)cc2)c1O | 1210 | Activity [3]: Non-Toxic; inhibition at 10 µM [8]: 42%
15 | O=C(N/N=C/c1ccccc1O)c1ccccc1 [SALICYLALDEHYDE BENZOYL HYDRAZONE] | > 50000 | –
16 | O=C(CCCCc1ccccc1)NNCc1ccc(O)c(O)c1O | 190 | –
17 | O=C(NNCc1ccc(O)c(O)c1O)c1ccc(Br)cc1 | 210 | –
18 | O=C(CCCc1ccc(F)cc1)N/N=C/c1ccc(O)c(O)c1O | 640 | –
19 | O=C(CCCc1ccc(O)cc1)NNCc1ccc(O)c(O)c1O | 100 | –
20 | O=C(N/N=C/c1ccccc1)c1ccccc1 | > 50000 | –
21 | O=C(NNCc1c(O)cc(O)cc1O)c1ccccc1 | 770 | –

Row | SMILES | IC50 [1] [nM] | other results
22 | CC(C)(C)OC(=O)NC(Cc1ccc(O)cc1)C(=O)N/N=C/c1ccc(O)c(O)c1O (stereo not drawn) | 540 | –
23 | O=C(Cc1ccc(F)cc1)N/N=C/c1ccc(O)c(O)c1O | 660 | –
24 | O=C(CCc1ccc(O)cc1)N/N=C/c1ccc(O)c(O)c1O | 120 | –
25 | O=C(Cc1ccc(O)cc1)N/N=C/c1ccc(O)c(O)c1O | 180 | –
26 | O=C(CCc1ccc(F)cc1)NNCc1ccc(O)c(O)c1O | 200 | –
27 | NC(CO)C(=O)N/N=C/c1ccc(O)c(O)c1O (stereo not drawn) | – | IC50 [2]: 2700 nM
28 | O=C(N/N=C/c1cc(O)cc(O)c1)c1ccccc1 | > 50000 | –
29 | O=C(CCCCc1ccc(O)cc1)N/N=C/c1ccc(O)c(O)c1O | 110 | Activity [3]: Non-Toxic; Papp at 0.5 h, 50 µM [9]: 11 ×10⁻⁶ cm/s
30 | CCCCC(=O)Oc1c(O)ccc(CNNC(=O)c2ccc(O)cc2)c1O | 1020 | inhibition at 10 µM [8]: 38%
31 | O=C(N/N=C/c1ccc(O)c(O)c1O)c1ccc(Br)cc1 | 460 | –
32 | O=C(NNCc1ccc(O)c(O)c1O)c1ccc(Cl)cc1 | 430 | –
33 | CC(C)(C)OC(=O)NC(Cc1ccc(F)cc1)C(=O)NNCc1ccc(O)c(O)c1O (stereo not drawn) | 780 | –
34 | O=C(N/N=C/c1cccc(O)c1O)c1ccccc1 | > 50000 | –
35 | O=C(CCc1ccc(F)cc1)N/N=C/c1ccc(O)c(O)c1O | 580 | –
36 | O=C(N/N=C/c1ccc(O)c(O)c1)c1ccccc1 | > 50000 | –
37 | O=C(NNCc1ccc(O)c(O)c1O)c1ccc(F)cc1 | 650 | –
38 | O=C(CCc1ccc(O)cc1)NNCc1ccc(O)c(O)c1O | 80 | –
39 | O=C(Cc1ccccc1)N/N=C/c1ccc(O)c(O)c1O | 750 | –
40 | O=C(NNCc1ccc(O)c(O)c1O)c1ccc(O)cc1 | 170 | Activity [3]: Non-Toxic
41 | O=C(N/N=C/c1ccc(O)c(O)c1O)c1ccc(F)cc1 | 870 | –
42 | O=C(CCCCc1ccc(F)cc1)NNCc1ccc(O)c(O)c1O | 230 | –

Row | SMILES | IC50 [1] [nM] | other results
43 | CS(=O)(=O)c1ccc(C(=O)N/N=C/c2ccc(O)c(O)c2O)cc1 | 890 | –
44 | O=C(CCCCc1ccc(F)cc1)N/N=C/c1ccc(O)c(O)c1O | 470 | –
45 | O=C(N/N=C/c1cccc(O)c1)c1ccccc1 | > 50000 | –
46 | Cc1cc(C(=O)N[C@H](C(=O)N[C@@H](Cc2ccc(F)cc2)C(=O)NNCc2ccc(O)c(O)c2O)C(C)C)no1 | 230 | –
47 | CCCCC(=O)Oc1c(O)ccc(/C=N/NC(=O)CCCCc2ccc(O)cc2)c1O | 970 | Activity [3]: Non-Toxic; Papp at 0.5 h, 50 µM [9]: 25 ×10⁻⁶ cm/s; inhibition at 10 µM [8]: 62%
48 | CS(=O)(=O)c1cccc(/C=N/NC(=O)c2ccccc2)c1 | > 50000 | –
49 | O=C(N/N=C/c1ccc(O)c(O)c1O)c1ccc(O)cc1 | 320 | Activity [3]: Non-Toxic
50 | Cc1cc(C(=O)N[C@H](C(=O)N[C@@H](Cc2ccc(F)cc2)C(=O)N/N=C/c2ccc(O)c(O)c2O)C(C)C)no1 | 610 | –
51 | O=C(N/N=C/c1c(O)cc(O)cc1O)c1ccccc1 | 1070 | –
52 | O=C(CCCc1ccccc1)NNCc1ccc(O)c(O)c1O | 340 | –
53 | O=C(CCc1ccccc1)N/N=C/c1ccc(O)c(O)c1O | 690 | –
54 | O=C(N/N=C/c1ccc(O)cc1O)c1ccccc1 | > 50000 | –
55 | O=C(CCCc1ccc(O)cc1)N/N=C/c1ccc(O)c(O)c1O | 160 | –
56 | CS(=O)(=O)c1ccc(C(=O)NNCc2ccc(O)c(O)c2O)cc1 | 770 | –
57 | CC(C)(C)OC(=O)NC(Cc1ccc(O)cc1)C(=O)NNCc1ccc(O)c(O)c1O (stereo not drawn) | 270 | –
58 | CCCCC(=O)Oc1c(O)ccc(CNNC(=O)CCCCc2ccc(O)cc2)c1O | 870 | Activity [3]: Non-Toxic; inhibition at 10 µM [8]: 43%
59 | O=C(CCCc1ccccc1)N/N=C/c1ccc(O)c(O)c1O | 710 | –
60 | O=C(N/N=C/c1ccc(O)cc1)c1ccccc1 | > 50000 | –
61 | O=C(CCc1ccccc1)NNCc1ccc(O)c(O)c1O | 320 | –
62 | O=C(N/N=C/c1cc(O)ccc1O)c1ccccc1 | 5510 | –
